From EPA's ToxValDB 9.5 come the findings set out here.

Values joined by “and” are separate entries in the source; they are usually repeats but may differ in a detail not shown here. Equal entries are not always repeated.

The test system of series [1] is Rattus norvegicus. Particulars: for LOEL / NOEL: Hershberger, gavage; for LEL: uterotrophic, duration: 3 days, Active.
The subject of series [2] is Rattus norvegicus. Particulars: developmental; oral; gavage; M; Sprague-Dawley; generation: F1; F1: Testosterone (Testes) production.
Series [3] deals with Rattus norvegicus. Particulars: chronic, oral, diet, lens opacity and cataracts.
The next series has as its system Mus musculus. Particulars: for NOAEL (% diet): CD1.
In series [4] the test system is Rattus norvegicus. Particulars: for LD50 / LC50: acute.
The subject of series [5] is Rattus norvegicus. Particulars: oral.
[6] abbreviates: duration: 10 days, oral, Wistar, active + Negative + Antiandrogenic + anti-androgenic.
Setting [7] is: repeat dose other, inhalation, B6C3F1.
Where [8] appears, read: duration: 7 days, oral, Sprague-Dawley, active + Antiandrogenic + anti-androgenic.
[9] abbreviates: subchronic, duration: 13 weeks, oral, diet, M, B6C3F1.
Setting [10] is: subchronic, duration: 13 weeks, oral, diet, Fischer 344.
Setting [11] is: short-term, duration: 28 days, gavage, M, Sprague-Dawley, Clinical Observation: Spontaneous locomotion decrease, Respiratory rate decrease, Prone position Eyelid closure Staggering gait Incomplete ….

Turning to `CCCCCOC(=O)c1ccccc1C(=O)OCCCCC` [Dipentyl phthalate], in the series with Rattus norvegicus [1] (setting [6]), the LOEL came out at 1000 mg/kg-day and the NOEL came to 200 mg/kg-day. The NOEL in the series on Rattus norvegicus [2] is 50 mg/kg-day.
In the case of `c1cc[n+]2c(c1)-c1cccc[n+]1CC2` [Diquat], the results for the LEL in the series with Rattus norvegicus [3] (F) and in the series on Rattus norvegicus [3] (M) were 0.72 mg/kg-day and 0.58 mg/kg-day, respectively. In addition, the NOEL in the series on Rattus norvegicus [3] (M/F) worked out at 0.22 mg/kg-day.
As to `CCCCCCCCCCCCCCCCCCOC(=O)CCSCCC(=O)OCCCCCCCCCCCCCCCCCC` [Distearyl thiodipropionate], the LD50 is more than 2000 mg/kg in the series on Mus musculus (acute, injection, Intraperitoneal); more than 2000 mg/kg in the series with Mus musculus (acute, oral); more than 2000 mg/kg in the series on Rattus norvegicus [4] (dermal); more than 5000 mg/kg with Rattus norvegicus [4] (oral).
Regarding `CC(C)COC(=O)C(C)C` [Isobutyl isobutyrate], the LD50 with Mus musculus (acute, oral) was more than 6400 mg/kg; in the series with Rattus norvegicus [4] (oral), more than 6400 mg/kg.
Take `C=CC(=C)C` [Isoprene]: the LC50 in the series with Mus musculus (acute, inhalation) was 180000 mg/m3 and 157000 mg/m3; with Rattus norvegicus [4] (inhalation), 180000 mg/m3 and 157000 mg/m3. Also, the no observed adverse effect level (NOAEL) came out at 19500 mg/m3 in the series with Mus musculus (developmental, duration: 6 days, inhalation, CD-1/Swiss, generation: F1); 27.9 mg/m3 in the series with Mus musculus (setting [7]); 195 mg/m3 in the series with Mus musculus (reproduction developmental, inhalation, B6C3F1); 19500 mg/m3 with Rattus norvegicus [4] (developmental, duration: 6 days, inhalation, Sprague-Dawley, generation: F1); 195 mg/m3 with Rattus norvegicus [4] (reproduction developmental, inhalation, Fischer 344). In the series with Mus musculus (setting [7]), this compound had an LOAEL of 195 mg/m3.
For the compound `CC(=O)[C@@]1(O)CC[C@H]2[C@@H]3C[C@H](C)C4=CC(=O)CC[C@]4(C)[C@H]3CC[C@@]21C` [Medroxyprogesterone], in the series with Rattus norvegicus [1] (setting [6]), the LOEL is 100 mg/kg-day and the NOEL is 20 mg/kg-day.
`CCN(O)CC` [N,N-Diethylhydroxylamine]: the median lethal dose (LD50) was 2150 mg/kg in the series with Mus musculus (acute, oral) and 2190 mg/kg in the series on Rattus norvegicus [4] (oral, gavage, WBS/W). In the series on Rattus norvegicus [4] (inhalation, Sprague-Dawley), the LC50 was found to be 11400 mg/m3. The NOAEL with Rattus norvegicus [4] (reproduction developmental, oral, gavage, F, Sprague-Dawley) stood at 250 mg/kg-day; in the series with Rattus norvegicus [4] (short-term, duration: 5 days, inhalation, Sprague-Dawley) it was 547 mg/m3; in the series on Rattus norvegicus [4] (short-term, duration: 28 days, inhalation, Sprague-Dawley), 547 mg/m3.
With `O=C1CCC(=O)N1c1cc(Cl)cc(Cl)c1` [N-(3,5-Dichlorophenyl)succinimide], in the series on Rattus norvegicus [1] (setting [8]), the LOEL amounted to 100 mg/kg-day and the NOEL is 50 mg/kg-day.
Turning to `OCC(CO)(CBr)CBr` [Pentaerythritol dibromide], the LOAEL came to 57.7 mg/kg-day in the series on Mus musculus (chronic, duration: 104 weeks, oral, diet, B6C3F1); 123 mg/kg-day with Mus musculus (subchronic, duration: 13 weeks, oral, diet, F, B6C3F1); 246 mg/kg-day in the series on Mus musculus (setting [9]); 240 mg/kg-day with Rattus norvegicus [4] (subchronic, duration: 3 months, oral, diet, Fischer 344); 240 mg/kg-day in the series on Rattus norvegicus [4] (setting [10]). In addition, the “NOAEL (% diet)” value in the series with Mus musculus (reproduction developmental, oral, diet, generation: F0) stood at 0.1; in the series with Mus musculus (reproduction developmental, oral, diet, generation: F1), 0.1; in the series with Mus musculus (reproduction developmental, oral, diet, generation: F2), 0.1. Further, the no-observed-adverse-effect level (NOAEL) worked out at 123 mg/kg-day in the series with Mus musculus (setting [9]), 120 mg/kg-day with Rattus norvegicus [4] (setting [10]) and 200 mg/kg-day in the series with Rattus norvegicus [5] (setting [11]). Moreover, the 50% lethal dose (LD50) is 1880 mg/kg in the series on Rattus norvegicus [4] (oral, gavage, Crl:CD1) and more than 2000 mg/kg in the series on Rattus norvegicus [4] (oral, gavage, Sprague-Dawley). Also, the NOEL with Rattus norvegicus [5] (setting [11]) is less than 200 mg/kg-day; with Rattus norvegicus [5] (subchronic, duration: 13 weeks, diet, F, Fischer 344, Body Weight Changes: decrease + Urinalysis: Total protein increase, Urine volume increase, Specific gravity decrease + Blood Chemistry: TP …) it was 100 mg/kg-day; with Rattus norvegicus [5] (subchronic, duration: 13 weeks, diet, M/F, Fischer 344, Body Weight Changes: decrease + Urinalysis: Total protein increase, Urine volume increase, Specific gravity decrease + Blood Chemistry: TP …), less than 120 mg/kg-day.
For the compound `CCCCOCCOCCOCc1cc2c(cc1CCC)OCO2` [Piperonyl butoxide], in the series on Rattus norvegicus [1] (duration: 10 days, oral, Sprague-Dawley, inactive + Negative + Negative + anti-androgenic + see note), the NOEL was 500 mg/kg-day.
For `CCCCCCCCCCCCOC(=O)CCSCCC(=O)OCCCCCCCCCCCC` [Propanoic acid, 3,3'-thiobis-, didodecyl ester], the LD50 in the series on Mus musculus (acute, oral) was more than 2000 mg/kg; with Rattus norvegicus [4] (oral) it was more than 2500 mg/kg. Moreover, the NOAEL with Rattus norvegicus [4] (reproduction developmental, duration: 13 weeks, oral, gavage, Sprague-Dawley) came out at 350 mg/kg-day; with Rattus norvegicus [4] (subchronic, duration: 13 weeks, oral, gavage, Sprague-Dawley), 350 mg/kg-day.
For the compound `CC(=O)S[C@@H]1CC2=CC(=O)CC[C@]2(C)[C@H]2CC[C@@]3(C)[C@@H](CC[C@@]34CCC(=O)O4)[C@H]12` [Spironolactone], in the series on Rattus norvegicus [1] (setting [6]), the LOEL came out at 40 mg/kg-day and the NOEL stood at 8 mg/kg-day.
`CC(C)OB(OC(C)C)OC(C)C` [Triisopropyl orthoborate]: the median lethal dose (LD50) amounted to 2500 mg/kg in the series on Mus musculus (acute, oral, Swiss) and 8130 mg/kg in the series on Rattus norvegicus [4] (oral, gavage).
In the series on Rattus norvegicus [1] (oral), `C[C@H]1CCCC(=O)CCCCCc2cc(O)cc(O)c2C(=O)O1` [Zearalanone] gave an LEL of 0.18 mg/day.
For the compound `C[C@H]1CCC[C@H](O)CCC/C=C/c2cc(O)cc(O)c2C(=O)O1` [alpha-Zearalenol], the LEL in the series on Rattus norvegicus [1] (oral) worked out at 0.01 mg/day.
As for `CCCCCCCCCc1ccccc1O` [n-Nonylphenol], in the series on Rattus norvegicus [1] (duration: 10 days, oral, Sprague-Dawley, active + Negative + Antiandrogenic + anti-androgenic + slight delay in timing of PPS, but only 33% of rats had complete separation by end of…), the LOEL was 100 mg/kg-day and 160 mg/kg-day. The compound also registered an LEL in the series on Rattus norvegicus [1] (injection, subcutaneous) of 100 mg/kg-day.
